These are literature values, as cited in patent publication US20160176819A1, “ASYMMETRICALLY CHARGED NIR FLUOROPHORES” (Washington University, priority 2014, published 2016).

Values joined by “and” are separate entries in the source; they are usually repeats but may differ in a detail not shown here. Equal values may be shown once.

The conditions of series [1]: ICG in DMSO, literature values; cited from earlier work.
The conditions of series [2]: reference value; cited from earlier work.

Turning to `CC1(C)C(/C=C/C=C/C=C/C=C2\N(CCCCS(=O)(=O)O)c3ccc4ccccc4c3C2(C)C)=[N+](CCCCS(=O)(=O)[O-])c2ccc3ccccc3c21` [ICG, indocyanine green], in series [1], the “fluorescence quantum yield of the reference” value was 0.12 and 0.22. Further, the “QY of the reference” value in series [2] is given as 23%.
